Columns and labels:
[1] = system: mice exposed to 9.6 Gy 60Co-γ-radiation; assay: Thirty-day survival of mice given amifostine before 9.6 Gy 60Co-γ-radiation (cohort 3); assay type: in vivo, mouse
Procedure: (§1) Cohort three comprised whole blood samples from mice exposed to a single dose of 9.6 Gy ^60Co-γ-radiation at a rate of 0.6 Gy/minute in the presence or absence of drug intervention (50 mg/kg or 200 mg/kg amifostine). A total of 300 blood samples were collected from 60 mice divided into five groups (12 mice per group). The five groups correspond to: (1) amifostine dosage of 50 mg/kg without radiation exposure, (2) amifostine dosage of 200 mg/kg without radiation exposure, (3) amifostine dosage of 50 mg/kg with radiation exposure, (4) amifostine dosage of 200 mg/kg with radiation exposure, and (5) a radiation exposure without an amifostine treatment. Blood samples were collected at five time-points: at day −5 (D−5), at time of amifostine dosage, day −1 (D−1), day 1 (D1), day 5 (D5) and day 9 (D9). Amifostine was delivered through a subcutaneous injection.
Lastly, to evaluate the radioprotective impact of amifostine treatment, cohort three also contained mice that received a subcutaneous injection of either 50 mg/kg or 200 mg/kg of amifostine 30 minutes (+10 minutes) before exposure to radiation. A total of 300 samples were collected from 60 mice divided into five groups (n=12): (1) 50 mg/kg amifostine treatment without radiation exposure (Am50), (2) 200 mg/kg amifostine treatment without radiation exposure (Am200), (3) only 9.6 Gy radiation exposure (RAD), (4) 9.6 Gy radiation exposure with a 50 mg/kg amifostine treatment (RAD+Am50), and (5) 9.6 Gy radiation exposure with a 200 mg/kg amifostine treatment (RAD+Am200). Serum samples were collected from each group at five different time points. Serum collected at five days and one day prior to radiation exposure were used as controls, and serum samples for metabolomics analysis were collected at 1, 5 and 9 days post-irradiation (Table 1).
Furthermore, an incremental decrease in survival began at day 11.

[2] = system: mouse whole blood metabolome; assay: Combined NMR and LC-MS metabolomics of mouse whole blood, metabolic time trajectories (cohort 3); assay type: in vivo; details: for NMR metabolic time trajectory of whole blood after radiation: PLS Q2 against D−5 baseline
Procedure: as §1
Mouse (n=236) and NHP (n=70) serum samples, and mouse blood samples (n=300) were simultaneously prepared for LC-MS and NMR analysis as shown in FIG. 1C. 2.0% by volume of NaN3 was added to each serum or blood sample to avoid bacterial growth. The protein component was precipitated by adding 100 μL (2×) of methanol to 50 μL of serum or blood. Deoxygenated methanol was used for the blood preparation to avoid unnecessary oxidation of the red blood cells. Methanol was purged of oxygen by bubbling in nitrogen gas for 30 minutes.
The 1:2 mixtures were then vortexed for 10 seconds. Serum samples were incubated at room temperature for 5 minutes. Blood samples were sonicated in a water bath for 10 minutes at 4° C., followed by incubation at −20° C. for 20 minutes. The samples were then centrifuged at 15,000×g for 20 minutes at 4° C. to pellet the proteins. The supernatant was collected, transferred to an Eppendorf tube, and centrifuged again at 15,000×g for 5 minutes at 4° C. The supernatant was then divided 20% and 80% for LC-MS and NMR samples, respectively. Samples were snap-frozen in liquid nitrogen. Methanol was evaporated by speed vacuum centrifugation (SpeedVac R Plus, Savant) and water was removed by lyophilization using FreeZone™ (Labconco, Kansas City, MO).
Dried serum or blood samples were reconstituted using 50 μL of 50 mM phosphate buffer in 100% D20 at pH 7.2 (uncorrected) with 50 μM TMSP as an NMR chemical shift reference and internal standard. The samples were centrifuged at 15,000×g for 20 minutes at 4° C. to remove any particulates, and the supernatant was transferred to 1.7 mm NMR tube for data acquisition. All NMR experiments were collected at 298K with a Bruker AVANCE III HD 700 MHz spectrometer equipped with a 5 mm quadruple resonance QCI-P cryoprobe (^1H, ^13C, ^15N and ^31P) with z-axis gradients. A SampleJet automated sample changer with Bruker ICON-NMR software was used to collect all data. […]

NCCCNCCSP(=O)(O)O [amifostine, 2-(3-aminpropyl) aminoethylphosphorothioate]
survival at 30 days post-irradiation ([1]; amifostine 50 mg/kg subcutaneous, 30 minutes before 9.6 Gy, untreated irradiated animals 100% died): 40%
day at which incremental decrease in survival began ([1]; amifostine 50 mg/kg, 9.6 Gy): 11 days
animal survival 30 days post-irradiation ([1]; amifostine 200 mg/kg subcutaneous, 30 minutes prior to 9.6 Gy, untreated irradiated animals 100% died): 100%
NMR metabolic time trajectory of whole blood after radiation ([2]; amifostine 50 mg/kg, 9.6 Gy): could not be discriminated from untreated controls
NMR metabolic time trajectory of whole blood after radiation ([2]; amifostine 200 mg/kg, 9.6 Gy, p=1.60×10^−7): reversed progression back towards the baseline norm (D−5) by D9
recovery of dysregulated metabolic pathways ([2]; amifostine 200 mg/kg, between D5 and D9 after radiation exposure): recovery of pathways including lipid metabolism, glycolysis, and TCA activity as well as energy and amino acid metabolism
LC-MS metabolic time trajectory of whole blood after radiation ([2]; amifostine treatment, 9.6 Gy, p=2.10×10^−2): divergence of trajectories from D5 to D9

From US20230410977A1, “METHODS AND MATERIALS FOR ASSESSING RADIATION EXPOSURE” (NUtech Ventures, priority 2020, published 2023)
